Key:
MAPKAPK2 = MAPKAPK2 (Homo sapiens, UniProt P49137); assay: HTS ATP-utilizing enzyme assay, off-chip mobility-shift (Caliper HTS 250); type: biochemical; conditions: test compound 10 μM, kinase listed = active (greater than six-sigma from the mean activity of inactive compounds)
In short: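 Phosphorylation of a peptide substrate was quantified by Caliper mobility-shift separation of substrate and product after 2.5 h at 20-22 °C, with compounds tested at 10 μM. Inhibition was normalized to EDTA-quenched (100%) and DMSO (0%) controls; six-sigma thresholds flagged actives.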

PRAK = target: T1, PRAK (Homo sapiens, UniProt Q8IW41); assay: as above; type: biochemical; conditions: test compound 10 μM, kinase listed = active (greater than six-sigma from the mean activity of inactive compounds)
T1 sequence (Q8IW41 1-473): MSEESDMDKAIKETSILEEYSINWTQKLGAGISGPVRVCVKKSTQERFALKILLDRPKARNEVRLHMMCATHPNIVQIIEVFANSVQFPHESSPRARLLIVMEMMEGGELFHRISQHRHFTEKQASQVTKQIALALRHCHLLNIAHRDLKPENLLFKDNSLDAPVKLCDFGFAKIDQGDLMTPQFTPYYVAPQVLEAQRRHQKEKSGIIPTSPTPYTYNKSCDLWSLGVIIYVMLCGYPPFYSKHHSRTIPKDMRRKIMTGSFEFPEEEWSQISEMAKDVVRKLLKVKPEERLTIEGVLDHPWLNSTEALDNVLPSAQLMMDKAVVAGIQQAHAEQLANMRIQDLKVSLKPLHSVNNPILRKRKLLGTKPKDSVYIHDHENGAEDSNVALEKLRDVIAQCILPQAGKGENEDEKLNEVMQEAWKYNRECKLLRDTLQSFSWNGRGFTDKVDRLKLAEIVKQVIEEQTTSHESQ
In short: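 Inhibition is reported from a single 10 μM concentration. Kinase phosphorylates a peptide substrate over 2.5 hrs at 20° C. to 22° C. before EDTA termination. Potential hits are those beyond six-sigma statistical limits.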

MAPKAPK2, sequence (P49137 whole entry): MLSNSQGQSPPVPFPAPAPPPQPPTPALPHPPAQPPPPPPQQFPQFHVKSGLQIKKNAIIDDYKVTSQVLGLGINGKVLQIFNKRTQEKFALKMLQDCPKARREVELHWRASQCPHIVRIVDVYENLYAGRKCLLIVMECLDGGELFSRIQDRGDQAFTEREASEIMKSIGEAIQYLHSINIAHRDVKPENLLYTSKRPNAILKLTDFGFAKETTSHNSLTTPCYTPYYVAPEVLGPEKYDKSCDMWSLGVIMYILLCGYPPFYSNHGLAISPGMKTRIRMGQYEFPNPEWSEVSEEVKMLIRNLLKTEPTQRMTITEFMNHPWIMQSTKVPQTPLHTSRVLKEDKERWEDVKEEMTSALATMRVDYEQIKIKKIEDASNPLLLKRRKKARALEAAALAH

SMILES | Activity (MAPKAPK2) | Activity (PRAK)
c1ccc(-c2ccc3nccc(Nc4ccc(N5CCNCC5)cc4)c3c2)cc1 [6-phenyl-N-(4-(piperazin-1-yl)phenyl)quinolin-4-amine] | MAPKAPK2 | PRAK
CN1CCN(c2ccc(Nc3ccnc4ccc(-c5cccc6ccccc56)cc34)cc2)CC1 [N-(4-(4-methylpiperazin-1-yl)phenyl)-6-(naphthalen-1-yl)quinolin-4-amine] | MAPKAPK2 | PRAK
CN1CCN(c2ccc(Nc3ccnc4ccc(-c5ccc6ccccc6c5)cc34)cc2)CC1 [N-(4-(4-methylpiperazin-1-yl)phenyl)-6-(naphthalen-2-yl)quinolin-4-amine] | MAPKAPK2 | PRAK
CN1CCN(c2ccc(Nc3ccnc4ccc(-c5ccncc5)cc34)cc2)CC1 [N-(4-(4-methylpiperazin-1-yl)phenyl)-6-(pyridin-4-yl)quinolin-4-amine] | – | PRAK
Cc1ccccc1-c1ccc2nccc(Nc3ccc(N4CCN(C)CC4)cc3)c2c1 [N-(4-(4-methylpiperazin-1-yl)phenyl)-6-o-tolylquinolin-4-amine] | MAPKAPK2 | PRAK

Continued, values first:

Activity (MAPKAPK2) | Activity (PRAK) | SMILES
MAPKAPK2 | PRAK | CN1CCN(c2ccc(Nc3ccnc4ccc(-c5ccc(O)cc5)cc34)cc2)CC1 [4-(4-(4-(4-methylpiperazin-1-yl)phenylamino)quinolin-6-yl)phenol]
MAPKAPK2 | PRAK | CN1CCN(c2ccc(Nc3ccnc4ccc(-c5ccc(F)cc5)cc34)cc2)CC1 [6-(4-fluorophenyl)-N-(4-(4-methylpiperazin-1-yl)phenyl)quinolin-4-amine]
MAPKAPK2 | PRAK | COc1ccc(-c2ccc3nccc(Nc4ccc(N5CCNCC5)cc4)c3c2)cc1 [6-(4-methoxyphenyl)-N-(4-(piperazin-1-yl)phenyl)quinolin-4-amine]
MAPKAPK2 | – | COc1ccc(-c2ccc3nccc(N(C)c4ccc(N5CCN(C)CC5)cc4)c3c2)cc1 [6-(4-methoxyphenyl)-N-methyl-N-(4-(4-methylpiperazin-1-yl)phenyl)quinolin-4-amine]

— patent publication US7452887B2, “Quinoline- and isoquinoline-based compounds exhibiting ATP-utilizing enzyme inhibitory activity, and compositions, and uses thereof” (Amphora Discovery Corporation, priority 2004, dated 2008)
